Tested on: single-round infectious HIV-1 reporter virus
Experiment: microbe, parasite or virus in culture
Format: cell-based
Conditions: for EC50: Human immunodeficiency virus 1, HeLa-CD4/CCR5; for inhibition at 10 µM: Human immunodeficiency virus 1, HeLa-CD4/CCR5, 72 h, read-out: Average % inhibition at or <10 μM; for Average % inhibition at or <10 μM: HeLa CD4 CCR5 cells, luciferase expression 3 days (72 hours) after infection, compounds tested below 10 μM: % inhibition at 10 μM extrapolated with XLfit, mean of at least two experiments

| SMILES | EC50 | inhibition at 10 µM | Average % inhibition at or <10 μM |
| --- | --- | --- | --- |
| C[C@H]1CN(C(=O)c2ccccc2)CCN1C(=O)C(=O)c1c[nH]c2ncccc12 [Compound 5f, (S)-N-(benzoyl)-3-methyl-N′-[(7-azaindol-3-yl)-oxoacetyl]-piperazine] | < 1000 nM | 80% | – |
| C[C@@H]1CN(C(=O)c2ccccc2)CCN1C(=O)C(=O)c1c[nH]c2nc(Cl)ccc12 [Compound 9b, (R)-N-(benzoyl)-3-methyl-N′-[(6-chloro-7-azaindol-3-yl)-oxoacetyl]-piperazine] | < 1000 nM | > 99% | – |
| C[C@@H]1CN(C(=O)c2ccccc2)CCN1C(=O)C(=O)c1c[nH]c2c(N(C)C)nccc12 [Compound 27c, (R)-N-(benzoyl)-3-methyl-N′-[(7-dimethylamino-6-azaindol-3-yl)-oxoacetyl]-piperazine] | < 1000 nM | 63% | – |
| C[C@@H]1CN(C(=O)c2ccccc2)CCN1C(=O)C(=O)c1c[nH]c2nccc([N+](=O)[O-])c12 [Compound 18a, (R)-N-(benzoyl)-3-methyl-N′-[(4-nitro-7-azaindol-3-yl)-oxoacetyl]-piperazine] | 1000 to 5000 nM | 80% | – |
| COc1ncc(OC)c2c(C(=O)C(=O)N3CCN(C(=O)c4ccccc4)CC3)c[nH]c12 [Compound 5ao, N-(benzoyl)-N′-[(4,7-dimethoxy-6-azaindol-3-yl)-oxoacetyl]piperazine] | < 1000 nM | – | – |
| C[C@@H]1CN(c2ccc(Br)o2)CCN1C(=O)C(=O)c1c[nH]c2ncccc12 [Compound 5l, (R)-N-(5-bromo-furan-2-yl)-3-methyl-N′-[(7-azaindol-3-yl)-oxoacetyl]-piperazine] | < 1000 nM | > 99% | – |
| CC(C)C1CN(C(=O)c2c[nH]c3ncccc23)CCN1C(=O)c1ccccc1 (centres unmarked) [Compound 5ad, N-(benzoyl)-2-iso-Propyl-N′-[(7-azaindol-3-yl)-carbonyl]-piperazine] | > 500 nM | – | – |
| COc1cnc(Cl)c2[nH]cc(C(=O)C(=O)N3CCN(C(=O)c4ccccc4)CC3)c12 [Compound 5an, N-(benzoyl)-N′-[(7-chloro-4-methoxy-6-azaindol-3-yl)-oxoacetyl]piperazine] | < 1000 nM | – | – |
| CC(C)Oc1ccnc2[nH]cc(C(=O)C(=O)N3CCN(C(=O)c4ccccc4)C[C@H]3C)c12 [Compound 17c, (R)-N-(benzoyl)-3-methyl-N′-[(4-(1-methylethoxy)-7-azaindol-3-yl)-oxoacetyl]-piperazine] | < 1000 nM | > 99% | – |
| CC1(C)CN(C(=O)c2ccccc2)CCN1C(=O)C(=O)c1c[nH]c2ncccc12 [Compound 5h, N-(benzoyl)-3,3-dimethyl-N′-[(7-azaindol-3-yl)-oxoacetyl]-piperazine] | 1000 to 5000 nM | 80% | – |
| C[C@@H]1CN(C(=O)c2ccccc2)CCN1C(=O)C(=O)c1c[nH]c2nccc(OCC(F)(F)F)c12 [Compound 17b, (R)-N-(benzoyl)-3-methyl-N′-[(4-(2,2,2-trifluoroethoxy)-7-azaindol-3-yl)-oxoacetyl]-piperazine] | < 1000 nM | 99% | – |
| O=C(C(=O)N1CCN(C(=O)c2ccccc2)CC1)c1c[nH]c2ncccc12 [Compound 5d, N-(benzoyl)-N′-[(7-azaindol-3-yl)-oxoacetyl]-piperazine] | < 1000 nM | 98% | – |
| C[C@@H]1CN(C(=O)c2ccccc2)CCN1C(=O)C(=O)c1c[nH]c2c[n+]([O-])ccc12 [Compound 8b, (R)-N-(benzoyl)-3-methyl-N′-[(6-oxide-6-azaindol-3-yl)-oxoacetyl]-piperazine] | – | – | 91% |
| COc1ccnc2[nH]cc(C(=O)C(=O)N3CCN(C(=O)c4ccccc4)C[C@H]3C)c12 [Compound 17a, (R)-N-(benzoyl)-3-methyl-N′-[(4-methoxy-7-azaindol-3-yl)-oxoacetyl]-piperazine] | < 1000 nM | > 99% | – |
| C[C@@H]1CN(C(=O)c2ccccc2)CCN1C(=O)C(=O)c1c[nH]c2nccc(N)c12 [Compound 20a, (R)-N-(benzoyl)-3-methyl-N′-[(4-amino-7-azaindol-3-yl)-oxoacetyl]-piperazine] | < 1000 nM | 95% | – |
| CC(C)C1CN(C(=O)c2ccccc2)CCN1C(=O)C(=O)c1c[nH]c2ncccc12 (centres unmarked) [Compound 5ab, N-(benzoyl)-3-iso-Propyl-N′-[(7-azaindol-3-yl)-oxoacetyl]-piperazine] | > 500 nM | – | – |
| C[C@@H]1CN(C(=O)c2ccccc2)CCN1C(=O)C(=O)c1c[nH]c2nc(C#N)ccc12 [Compound 12a, (R)-N-(benzoyl)-3-methyl-N′-[(6-cyano-7-azaindol-3-yl)-oxoacetyl]-piperazine] | < 1000 nM | > 99% | – |
| COc1cc[n+]([O-])c2[nH]cc(C(=O)C(=O)N3CCN(C(=O)c4ccccc4)C[C@H]3C)c12 [Compound 16a, (R)-N-(benzoyl)-3-methyl-N′-[(4-methoxy-7-oxide-7-azaindol-3-yl)-oxoacetyl]-piperazine] | – | – | >99% |

| SMILES | EC50 | inhibition at 10 µM | Average % inhibition at or <10 μM |
| --- | --- | --- | --- |
| CCCSc1cc[n+]([O-])c2[nH]cc(C(=O)C(=O)N3CCN(C(=O)c4ccccc4)C[C@H]3C)c12 [Compound 16e, (R)-N-(benzoyl)-3-methyl-N′-[(4-propylthio-7-oxide-7-azaindol-3-yl)-oxoacetyl]-piperazine] | – | – | 50% |
| CC(=O)Oc1ccc2c(C(=O)C(=O)N3CCN(C(=O)c4ccccc4)C[C@H]3C)cn(C(C)=O)c2n1 [Compound 13a, (R)-N-(benzoyl)-3-methyl-N′-[(1-acetyl-6-acetoxy-7-azaindol-3-yl)-oxoacetyl]-piperazine] | < 1000 nM | > 99% | – |
| COc1ccnc2[nH]cc(C(=O)C(=O)N3CCN(C(=O)c4ccccc4)CC3C)c12 (centres unmarked) [Compound 17e, N-(benzoyl)-3-methyl-N′-[(4-methoxy-7-azaindol-3-yl)-oxoacetyl]-piperazine] | < 1000 nM | 94% | – |
| O=C(C(=O)N1CCN(C(=O)c2ccccc2)CC1)c1c[nH]c2cnccc12 [Compound 5p, N-(benzoyl)-N′-[(6-azaindol-3-yl)-oxoacetyl]-piperazine] | > 500 nM | 40% | – |
| C[C@@H]1CN(C(=O)c2ccccc2)CCN1C(=O)C(=O)c1c[nH]c2nc(O)ccc12 [Compound 14a, (R)-N-(benzoyl)-3-methyl-N′-[(6-hydroxyl-7-azaindol-3-yl)-oxoacetyl]-piperazine] | – | > 99% | – |
| CCC1CN(C(=O)c2c[nH]c3ncccc23)CCN1C(=O)c1ccccc1 (centres unmarked) [Compound 5c, N-(benzoyl)-2-ethyl-N′-[(7-azaindol-3-yl)-carbonyl]-piperazine] | < 1000 nM | 80% | – |
| C[C@@H]1CN(C(=O)c2ccccc2)CCN1C(=O)C(=O)c1cn(C)c2ncccc12 [Compound 21a, (R)-N-(benzoyl)-3-methyl-N′-[(1-methyl-7-azaindol-3-yl)-oxoacetyl]-piperazine] | < 1000 nM | 70% | – |
| C[C@H]1CN(C(=O)c2ccccc2)CCN1C(=O)C(=O)c1c[nH]c2cnccc12 [Compound 5s, (S)-N-(benzoyl)-3-Methyl-N′-[(6-azaindol-3-yl)-oxoacetyl]-piperazine] | > 500 nM | 56% | – |
| C[C@@H]1CN(C(=O)c2ccccc2)[C@@H](C)CN1C(=O)C(=O)c1c[nH]c2ncccc12 (relative stereo) [Compound 5i, trans-N-(benzoyl)-2,5-dimethyl-N′-[(7-azaindol-3-yl)-oxoacetyl]-piperazine] | < 1000 nM | 89% | – |
| CC1CN(C(=O)c2ccccc2)CCN1C(=O)C(=O)c1c[nH]c2ncccc12 (centres unmarked) [Compound 5ai, N-(benzoyl)-3-methyl-N′-[(7-azaindol-3-yl)-oxoacetyl]-piperazine] | < 1000 nM | – | – |
| C[C@@H]1CN(C(=O)c2ccccc2)CCN1C(=O)C(=O)c1c[nH]c2c(Cl)nccc12 [Compound 5u, (R)-N-(benzoyl)-3-Methyl-N′-[(7-Chloro-6-azaindol-3-yl)-oxoacetyl]-piperazine] | < 1000 nM | 99% | – |
| CCCSc1ccc2c(C(=O)C(=O)N3CCN(C(=O)c4ccccc4)C[C@H]3C)c[nH]c2n1 [Compound 17f, (R)-N-(benzoyl)-3-methyl-N′-[(6-propylthiol-7-azaindol-3-yl)-oxoacetyl]-piperazine] | – | – | >99% |
| C[C@@H]1CN(C(=O)c2ccccc2)CCN1C(=O)C(=O)c1c[nH]c2c1ccc[n+]2[O-] [Compound 8a, (R)-N-(benzoyl)-3-methyl-N′-[(7-oxide-7-azaindol-3-yl)-oxoacetyl]-piperazine] | – | – | 90% |
| COc1ccnc2c(C(=O)C(=O)N3CCN(C(=O)c4ccccc4)C[C@H]3C)cn(C)c12 [Compound 5z, (R)-N-(benzoyl)-3-Methyl-N′-[(7-Methoxy-1-methyl-4-azaindol-3-yl)-oxoacetyl]-piperazine] | < 1000 nM | 97% | – |
| Cc1cc(Cl)nc2c(C(=O)C(=O)N3CCN(C(=O)c4ccccc4)C[C@H]3C)c[nH]c12 [Compound 5ak, (R)-N-(benzoyl)-3-Methyl-N′-[(5-Chloro-7-methyl-4-azaindol-3-yl)-oxoacetyl]-piperazine] | < 1000 nM | – | – |
| CC1CN(C(=O)c2ccccc2)CCN1C(=O)C(=O)c1c[nH]c2cnccc12 (centres unmarked) [Compound 5q, N-(benzoyl)-3-Methyl-N′[(6-azaindol-3-yl)-oxoacetyl]-piperazine] | < 1000 nM | 97% | – |
| COc1ncc(OC)c2c(C(=O)C(=O)N3CCN(C(=O)c4ccccc4)C[C@H]3C)c[nH]c12 [Compound 5ap, ®-N-(benzoyl)-3-methyl-N′-[(4,7-dimethoxy-6-azaindol-3-yl)-oxoacetyl]piperazine] | < 1000 nM | – | – |
| C[C@@H]1CN(C(=O)c2ccccc2)CCN1C(=O)C(=O)c1c[nH]c2nccc(NO)c12 [Compound 19a, (R)-N-(benzoyl)-3-methyl-N′-[(4-hydroxylamino-7-azaindol-3-yl)-oxoacetyl]-piperazine] | < 1000 nM | 98% | – |

From US6476034B2, “Antiviral azaindole derivatives” (priority 2000, dated 2002)
